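All cell lines were grown in 96-well plates and treated with compound for 48 hours. Abbreviation: GI50, concentration required for 50% inhibition of growth.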 The source made the active and inactive calls. No stated cut-off is given here; in the data, active = GI50 up to about 1.1 µM and inactive = higher.
Tests used:
Experiment in all cases: NCI-60 cell line screen, 48 h
CAKI-1 = test system: CAKI-1
LOX IMVI = test system: LOX IMVI
SNB-19 = test system: SNB-19
HL-60 = test system: HL-60
SNB-75 = test system: SNB-75
K562 = test system: K562
SN12C = test system: SN12C
RPMI-8226 = test system: RPMI-8226
KM-20L2 = test system: KM-20L2
SF-295 = test system: SF-295
DLD-1 = test system: DLD-1
A549 = test system: A549
UACC-257 = test system: UACC-257
A498 = test system: A498
SK-MEL-5 = test system: SK-MEL-5
MOLT-4 = test system: MOLT-4
KM12 = test system: KM12
Malme-3M = test system: Malme-3M
TK-10 = test system: TK-10
M19-MEL = test system: M19-MEL
OVCAR-4 = test system: OVCAR-4
HCT-15 = test system: HCT-15
SR = test system: SR
U-251 = test system: U-251
786-0 = test system: 786-0
IGROV-1 = test system: IGROV-1
SF-268 = test system: SF-268
LXFL 529 = test system: LXFL 529
RXF 393 = test system: RXF 393
HCT-116 = test system: HCT-116
SW-620 = test system: SW-620
HCC 2998 = test system: HCC 2998
UACC-62 = test system: UACC-62
NCI-H226 = test system: NCI-H226
OVCAR-5 = test system: OVCAR-5
OVCAR-3 = test system: OVCAR-3
NCI-H460 = test system: NCI-H460
HT-29 = test system: HT-29
CCRF-CEM = test system: CCRF-CEM
SK-MEL-28 = test system: SK-MEL-28
NCI-H23 = test system: NCI-H23
XF498 = test system: XF498
HOP-62 = test system: HOP-62
EKVX = test system: EKVX
M14 = test system: M14
HOP-92 = test system: HOP-92
ACHN = test system: ACHN
OVCAR-8 = test system: OVCAR-8
COLO 205 = test system: COLO 205
HOP-18 = test system: HOP-18
DMS-114 = test system: DMS-114
SF-539 = test system: SF-539
SK-MEL-2 = test system: SK-MEL-2
UO-31 = test system: UO-31
NCI-H522 = test system: NCI-H522
DMS-273 = test system: DMS-273
SNB-78 = test system: SNB-78
SK-OV-3 = test system: SK-OV-3
NCI/ADR-RES = test system: NCI/ADR-RES
MCF7 = test system: MCF7

Measured: GI50

N#Cc1ccccc1NC(=O)C(=O)C1NC(=S)NC1=O (centres undefined)
inactive: CAKI-1 > 100 µM | LOX IMVI > 100 µM | SNB-19 > 100 µM | HL-60 > 100 µM | SNB-75 > 100 µM | K562 > 100 µM | SN12C > 100 µM | RPMI-8226 > 100 µM | KM-20L2 > 100 µM | SF-295 > 100 µM | DLD-1 > 100 µM | A549 > 100 µM | UACC-257 > 100 µM | A498 > 100 µM | SK-MEL-5 > 100 µM | MOLT-4 > 100 µM | KM12 > 100 µM | Malme-3M > 100 µM | TK-10 > 100 µM | M19-MEL > 100 µM | OVCAR-4 > 100 µM | SR > 100 µM | U-251 > 100 µM | 786-0 > 100 µM | IGROV-1 > 100 µM | SF-268 > 100 µM | LXFL 529 > 100 µM | RXF 393 > 100 µM | HCT-116 > 100 µM | SW-620 > 100 µM | HCC 2998 > 100 µM | UACC-62 > 100 µM | NCI-H226 > 100 µM | OVCAR-5 > 100 µM | OVCAR-3 > 100 µM | NCI-H460 > 100 µM | HT-29 > 100 µM | CCRF-CEM > 100 µM | SK-MEL-28 > 100 µM | NCI-H23 > 100 µM | XF498 > 100 µM | HOP-62 > 100 µM | EKVX > 100 µM | M14 > 100 µM | HOP-92 > 100 µM | ACHN > 100 µM | OVCAR-8 > 100 µM | COLO 205 > 100 µM | HOP-18 46.6 µM | DMS-114 > 100 µM | SF-539 > 100 µM
> 100 µM: HCT-15

Cc1nc(-c2nc(C)c(C(=O)NN(C)C)s2)sc1C(=O)NN(C)C
inactive: CAKI-1 > 100 µM | LOX IMVI 23.6 µM | SNB-19 > 100 µM | HL-60 43 µM | SNB-75 60.3 µM | K562 32.6 µM | SK-MEL-2 > 100 µM | SN12C > 100 µM | RPMI-8226 28.8 µM | UO-31 > 100 µM | KM-20L2 > 100 µM | SF-295 > 100 µM | DLD-1 33.9 µM | UACC-257 > 100 µM | NCI-H522 34.6 µM | A498 > 100 µM | SK-MEL-5 > 100 µM | MOLT-4 44.1 µM | KM12 > 100 µM | Malme-3M > 100 µM | TK-10 > 100 µM | M19-MEL > 100 µM | OVCAR-4 53 µM | SR 19.7 µM | DMS-273 16.2 µM | U-251 > 100 µM | 786-0 30.7 µM | IGROV-1 > 100 µM | SF-268 > 100 µM | LXFL 529 > 100 µM | HCC 2998 > 100 µM | UACC-62 > 100 µM | NCI-H226 > 100 µM | OVCAR-5 > 100 µM | OVCAR-3 > 100 µM | NCI-H460 > 100 µM | HT-29 > 100 µM | CCRF-CEM 31.2 µM | SK-MEL-28 > 100 µM | NCI-H23 > 100 µM | XF498 > 100 µM | SNB-78 > 100 µM | HOP-62 > 100 µM | EKVX > 100 µM | M14 > 100 µM | HOP-92 > 100 µM | ACHN > 100 µM | OVCAR-8 > 100 µM | COLO 205 21.7 µM | SK-OV-3 > 100 µM | HOP-18 > 100 µM | SF-539 > 100 µM
67.9 µM: HCT-15

CN(C)CCNC(=O)c1cccc2[nH]c(-c3ccc(Cl)cc3)nc12
inactive: CAKI-1 2.82 µM | LOX IMVI 4.42 µM | SNB-19 7.87 µM | HL-60 2.77 µM | SNB-75 4.4 µM | K562 2.93 µM | SK-MEL-2 13.4 µM | SN12C 5.07 µM | RPMI-8226 2.76 µM | UO-31 2.69 µM | KM-20L2 5.14 µM | SF-295 8.18 µM | DLD-1 4.8 µM | NCI/ADR-RES 5.42 µM | A549 3.66 µM | UACC-257 7.78 µM | NCI-H522 6.14 µM | A498 10.7 µM | SK-MEL-5 4.8 µM | MOLT-4 2.03 µM | KM12 6.95 µM | Malme-3M 6.82 µM | M19-MEL 6.98 µM | OVCAR-4 7.24 µM | DMS-273 4.03 µM | U-251 5.42 µM | IGROV-1 7.35 µM | SF-268 12.7 µM | RXF 393 8.57 µM | HCT-116 3.28 µM | SW-620 3.96 µM | HCC 2998 4.05 µM | UACC-62 5.53 µM | NCI-H226 4.59 µM | OVCAR-5 10.3 µM | OVCAR-3 10.2 µM | NCI-H460 3.12 µM | HT-29 4.24 µM | CCRF-CEM 6.21 µM | SK-MEL-28 17.1 µM | NCI-H23 7.41 µM | XF498 4.49 µM | SNB-78 15.9 µM | HOP-62 8.77 µM | EKVX 12.4 µM | MCF7 3.66 µM | HOP-92 5.25 µM | OVCAR-8 4.61 µM | COLO 205 2.97 µM | SK-OV-3 11.4 µM | HOP-18 14.4 µM | DMS-114 8.61 µM | SF-539 4.65 µM
4.99 µM: HCT-15

Reference: ChEMBL document CHEMBL1201862, “PubChem BioAssay data set” (2004)
